The subject of series [1] is bicistronic HCV replicon (replicon RNA, GenBank Accession No. AJ242654). Description: HCV Replicon Assay. The note with it: Hepatitis C virus, 72 h, read-out: Replicon IC50. The format is cell-based.

The structures appear in SMILES notation. Some results are limits rather than exact numbers.

This passage reports IC50 and melting point results from US8735414B2 (priority 2009, dated 2014).

As a reminder, the IC50 is the concentration that inhibits the measured activity by half. The melting point is the temperature of the solid-liquid transition.

With `CC(C)NS(=O)(=O)c1ccc(-c2c(C#N)c3ccc(OC(F)(F)F)cc3n2C(C)C)nc1` [compound 12, 6-[3-cyano-1-(propan-2-yl)-6-(trifluoromethoxy)-1H-indol-2-yl]-N-(propan-2-yl)pyridine-3-sulfonamide], the melting point lay in the range of 160 to 162 °C. Moreover, the IC50 in series [1] was in the range of 500 to 2000 nM.

`CC(C)(C)NS(=O)(=O)c1ccc(-c2c(C#N)c3cc(Cl)ccc3n2C2CCC2)nc1` [compound 15, N-tert-butyl-6-(5-chloro-3-cyano-1-cyclobutyl-1H-indol-2-yl)pyridine-3-sulfonamide]: the melting point lay in the range of 195 to 197 °C. Also, the IC50 in series [1] was in the range of 500 to 2000 nM.

`CC(C)(C)NS(=O)(=O)c1ccc(-c2c(C#N)c3ccc(OC(F)(F)F)cc3n2C2CCCC2)nc1` [compound 18, N-tert-butyl-6-[3-cyano-1-cyclopentyl-6-(trifluoromethoxy)-1H-indol-2-yl]pyridine-3-sulfonamide] came in with a melting point of 182 to 184 °C. In series [1], the concentration for half-maximal inhibition (IC50) fell in the range of 500 to 2000 nM.

`CC(C)(C)NS(=O)(=O)c1ccc(-c2c(C#N)c3cc(OC(F)F)ccc3n2C2CCC2)nc1` [compound 20, N-tert-butyl-6-[3-cyano-1-cyclobutyl-5-(difluoromethoxy)-1H-indol-2-yl]pyridine-3-sulfonamide] had a melting point of 167 to 170 °C. Also, in series [1], the IC50 lay within 500 to 2000 nM.

On to `CC(C)NS(=O)(=O)c1ccc(-c2c(C#N)c3cc(OC(F)F)ccc3n2C2CCCC2)nc1` [compound 21, 6-[3-cyano-1-cyclopentyl-5-(difluoromethoxy)-1H-indol-2-yl]-N-(propan-2-yl)pyridine-3-sulfonamide], for which the melting point lay in the range of 177 to 179 °C. In addition, the IC50 in series [1] was less than 500 nM.

With `CC(C)Sc1ccc2c(C#N)c(-c3ccc(S(=O)(=O)N4CCCCC4)cn3)n(C3CCC3)c2c1` [compound 22, 1-cyclobutyl-2-[5-(piperidin-1-ylsulfonyl)pyridin-2-yl]-6-(propan-2-ylsulfanyl)-1H-indole-3-carbonitrile], the melting point was 169 to 171 °C. Moreover, the concentration for half-maximal inhibition (IC50) in series [1] was in the range of 500 to 2000 nM.

Regarding `N#Cc1c(-c2ccc(S(=O)(=O)NC(CF)CF)cn2)n(C2CCC2)c2cc(OC(F)(F)F)ccc12` [compound 24, 6-[3-cyano-1-cyclobutyl-6-(trifluoromethoxy)-1H-indol-2-yl]-N-(1,3-difluoropropan-2-yl)pyridine-3-sulfonamide], the melting point is 158 to 160 °C. The half-maximal inhibitory concentration (IC50) in series [1] was less than 500 nM.

Take `N#Cc1c(-c2ccc(S(=O)(=O)NC(CF)CF)cn2)n(C2CCC2)c2ccc(OC(F)(F)F)cc12` [compound 25, 6-[3-cyano-1-cyclobutyl-5-(trifluoromethoxy)-1H-indol-2-yl]-N-(1,3-difluoropropan-2-yl)pyridine-3-sulfonamide]: the melting point is 179 to 182 °C. Further, the half-maximal inhibitory concentration (IC50) in series [1] is 500 to 2000 nM.

`N#Cc1c(-c2ccc(S(=O)(=O)NC(CF)CF)cn2)n(C2CCC2)c2ccc(F)cc12` [compound 29, 6-(3-cyano-1-cyclobutyl-5-fluoro-1H-indol-2-yl)-N-(1,3-difluoropropan-2-yl)pyridine-3-sulfonamide] yielded a melting point of 206 to 208 °C. Besides, in series [1], the IC50 was less than 500 nM.

In turn, `N#Cc1c(-c2ccc(S(=O)(=O)NC(CF)CF)cn2)n(C2CCC2)c2ccc(Cl)cc12` [compound 30, 6-(5-chloro-3-cyano-1-cyclobutyl-1H-indol-2-yl)-N-(1,3-difluoropropan-2-yl)pyridine-3-sulfonamide] showed a melting point of 182 to 186 °C. Besides, in series [1], the concentration for half-maximal inhibition (IC50) was less than 500 nM.

On to `N#Cc1c(-c2ccc(S(=O)(=O)NC(CF)CF)cn2)n(C2CCC2)c2ccc(OC(F)F)cc12` [compound 32, 6-[3-cyano-1-cyclobutyl-5-(difluoromethoxy)-1H-indol-2-yl]-N-(1,3-difluoropropan-2-yl)pyridine-3-sulfonamide], for which the melting point lay in the range of 166 to 172 °C. In addition, the IC50 in series [1] was less than 500 nM.

Consider `N#Cc1c(-c2ccc(S(=O)(=O)NC(CF)CF)cn2)n(C2CCCC2)c2ccc(OC(F)F)cc12` [compound 33, 6-[3-cyano-1-cyclopentyl-5-(difluoromethoxy)-1H-indol-2-yl]-N-(1,3-difluoropropan-2-yl)pyridine-3-sulfonamide], for which the melting point lay in the range of 172 to 175 °C. Also, in series [1], the half-maximal inhibitory concentration (IC50) is less than 500 nM.

Compound `N#Cc1c(-c2ccc(S(=O)(=O)NC(CF)CF)cn2)n(C2CCCC2)c2ccc(OC(F)(F)F)cc12` [compound 34, 6-[3-cyano-1-cyclopentyl-5-(trifluoromethoxy)-1H-indol-2-yl]-N-(1,3-difluoropropan-2-yl)pyridine-3-sulfonamide] registered a melting point of 159 to 160 °C. Moreover, in series [1], the IC50 is less than 500 nM.

On to `CC(C)n1c(-c2ccc(S(=O)(=O)NC(CF)CF)cn2)c(C#N)c2ccc(OC(F)F)cc21` [compound 36, 6-[3-cyano-6-(difluoromethoxy)-1-(propan-2-yl)-1H-indol-2-yl]-N-(1,3-difluoropropan-2-yl)pyridine-3-sulfonamide], for which the melting point lay within 142 to 145 °C. Also, in series [1], the IC50 is less than 500 nM.

In turn, `N#Cc1c(-c2ccc(S(=O)(=O)NC(CF)CF)cn2)n(C2CCC2)c2cc(Cl)ccc12` [compound 37, 6-(6-chloro-3-cyano-1-cyclobutyl-1H-indol-2-yl)-N-(1,3-difluoropropan-2-yl)pyridine-3-sulfonamide] came in with a melting point of 200 to 202 °C. The IC50 in series [1] is less than 500 nM.

`N#Cc1c(-c2ccc(S(=O)(=O)NC(CF)CF)cn2)n(C2CCCC2)c2ccc(F)cc12` [compound 38, 6-(3-cyano-1-cyclopentyl-5-fluoro-1H-indol-2-yl)-N-(1,3-difluoropropan-2-yl)pyridine-3-sulfonamide] yielded a melting point of 171 to 172 °C. The IC50 in series [1] is less than 500 nM.

In turn, `CC(C)NS(=O)(=O)c1ccc(-c2c(C#N)c3ccc(OC(F)F)cc3n2C2CC2)cn1` [compound 39, 5-[3-cyano-1-cyclopropyl-6-(difluoromethoxy)-1H-indol-2-yl]-N-(propan-2-yl)pyridine-2-sulfonamide] gave a melting point of 209 to 210 °C. Moreover, the IC50 in series [1] fell in the range of 2000 to 5000 nM.

`N#Cc1c(-c2ccc(S(=O)(=O)NC(CF)CF)cn2)n(CC2CC2)c2cc(OC(F)F)ccc12` [compound 41, 6-[3-cyano-1-(cyclopropylmethyl)-6-(difluoromethoxy)-1H-indol-2-yl]-N-(1,3-difluoropropan-2-yl)pyridine-3-sulfonamide] displayed a melting point of 150 to 151 °C. Besides, the IC50 in series [1] was less than 500 nM.

Compound `N#Cc1c(-c2ccc(S(=O)(=O)NC(CF)CF)cn2)n(C2CC2)c2cc(OC(F)F)ccc12` [compound 42, 6-[3-cyano-1-cyclopropyl-6-(difluoromethoxy)-1H-indol-2-yl]-N-(1,3-difluoropropan-2-yl)pyridine-3-sulfonamide] gave a melting point of 219 to 220 °C. In addition, the 50% inhibitory concentration (IC50) in series [1] was less than 500 nM.

With `CC(C)c1ccc2c(C#N)c(-c3ccc(S(=O)(=O)NC(CF)CF)cn3)n(C3CCC3)c2c1` [compound 43, 6-[3-cyano-1-cyclobutyl-6-(propan-2-yl)-1H-indol-2-yl]-N-(1,3-difluoropropan-2-yl)pyridine-3-sulfonamide], the melting point fell in the range of 135 to 140 °C. Further, the IC50 in series [1] was less than 500 nM.
